Source: the kinase profiling compilation of Christmann-Franck et al. (2016)

How the values were obtained:
Assay in all cases: radiometric filter-binding kinase assay, Kinase HotSpot
Conditions in all cases: compound 0.5 µM; ATP 10 µM
OXSR1 (human) = OXSR1 (human) (UniProt O95747)
ULK3 (human) = ULK3 (human) (UniProt Q6PHR2)
STK38 (human) = STK38 (human) (UniProt Q15208)
MAP4K2 (human) = MAP4K2 (human) (UniProt Q12851)
MET (human) = MET (human) (UniProt P08581)
RPS6KB1 (human) = RPS6KB1 (human) (UniProt P23443)
IGF1R (human) = IGF1R (human) (UniProt P08069)
MUSK (human) = MUSK (human) (UniProt O15146)
TSSK1B (human) = TSSK1B (human) (UniProt Q9BXA7)
PTK2B (human) = PTK2B (human) (UniProt Q14289)
Sequence of PTK2B (human) (Q14289 whole entry, looked up): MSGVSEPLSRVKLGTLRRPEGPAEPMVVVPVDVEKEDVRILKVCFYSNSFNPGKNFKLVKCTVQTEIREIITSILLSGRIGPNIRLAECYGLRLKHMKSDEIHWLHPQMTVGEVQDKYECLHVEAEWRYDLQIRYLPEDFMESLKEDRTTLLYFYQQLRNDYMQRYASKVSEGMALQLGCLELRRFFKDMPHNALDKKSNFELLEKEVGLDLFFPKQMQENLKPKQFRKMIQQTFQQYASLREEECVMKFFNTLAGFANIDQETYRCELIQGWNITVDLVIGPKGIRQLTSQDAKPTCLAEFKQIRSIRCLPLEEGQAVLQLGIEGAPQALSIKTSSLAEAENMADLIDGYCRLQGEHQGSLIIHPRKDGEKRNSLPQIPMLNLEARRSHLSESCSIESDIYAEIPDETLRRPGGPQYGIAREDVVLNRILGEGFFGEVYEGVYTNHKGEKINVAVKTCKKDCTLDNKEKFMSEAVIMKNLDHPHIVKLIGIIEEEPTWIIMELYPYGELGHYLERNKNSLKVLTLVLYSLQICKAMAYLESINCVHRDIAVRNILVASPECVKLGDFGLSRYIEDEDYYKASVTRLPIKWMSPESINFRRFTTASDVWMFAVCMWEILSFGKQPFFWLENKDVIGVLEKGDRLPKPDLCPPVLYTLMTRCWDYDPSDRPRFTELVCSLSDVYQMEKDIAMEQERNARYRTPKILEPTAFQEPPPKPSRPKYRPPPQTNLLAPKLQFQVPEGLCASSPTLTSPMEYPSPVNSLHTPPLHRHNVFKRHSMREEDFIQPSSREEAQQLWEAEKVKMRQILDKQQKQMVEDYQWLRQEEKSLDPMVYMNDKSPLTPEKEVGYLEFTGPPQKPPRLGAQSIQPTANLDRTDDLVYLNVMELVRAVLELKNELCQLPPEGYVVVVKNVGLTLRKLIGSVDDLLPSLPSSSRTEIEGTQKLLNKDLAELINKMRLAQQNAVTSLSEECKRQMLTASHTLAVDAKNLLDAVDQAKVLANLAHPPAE

EPHA6 (human) = EPHA6 (human) (UniProt Q9UF33)
MAPK12 (human) = MAPK12 (human) (UniProt P53778)
ULK1 (human) = ULK1 (human) (UniProt O75385)
AKT2 (human) = AKT2 (human) (UniProt P31751)
PRKCB2 (human) = PRKCB2 (human) (UniProt P05771)
CDK7 CCNH MNAT1 (human) = CDK7 CCNH MNAT1 (human) (UniProt P50613+P51948+P51946)
Sequence of CDK7 CCNH MNAT1 (human) (P50613 whole entry, looked up): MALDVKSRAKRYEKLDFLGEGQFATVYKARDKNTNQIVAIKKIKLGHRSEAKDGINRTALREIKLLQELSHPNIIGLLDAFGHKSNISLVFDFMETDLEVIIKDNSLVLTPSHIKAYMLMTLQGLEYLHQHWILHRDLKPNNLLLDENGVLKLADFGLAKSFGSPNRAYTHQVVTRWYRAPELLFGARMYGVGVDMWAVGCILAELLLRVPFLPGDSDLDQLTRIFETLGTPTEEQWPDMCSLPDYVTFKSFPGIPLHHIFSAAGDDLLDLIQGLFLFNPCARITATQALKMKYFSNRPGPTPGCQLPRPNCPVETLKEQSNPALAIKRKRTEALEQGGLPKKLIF
Sequence of CDK7 CCNH MNAT1 (human) (P51946 whole entry, looked up): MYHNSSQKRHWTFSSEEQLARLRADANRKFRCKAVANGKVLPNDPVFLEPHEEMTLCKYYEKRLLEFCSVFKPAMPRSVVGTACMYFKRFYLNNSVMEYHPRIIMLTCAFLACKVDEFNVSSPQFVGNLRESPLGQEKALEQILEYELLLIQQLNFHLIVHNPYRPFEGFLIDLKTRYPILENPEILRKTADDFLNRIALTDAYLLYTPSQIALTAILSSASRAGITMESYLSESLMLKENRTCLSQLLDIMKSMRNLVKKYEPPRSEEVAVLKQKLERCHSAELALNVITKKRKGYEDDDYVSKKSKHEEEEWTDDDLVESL
Sequence of CDK7 CCNH MNAT1 (human) (P51948 whole entry, looked up): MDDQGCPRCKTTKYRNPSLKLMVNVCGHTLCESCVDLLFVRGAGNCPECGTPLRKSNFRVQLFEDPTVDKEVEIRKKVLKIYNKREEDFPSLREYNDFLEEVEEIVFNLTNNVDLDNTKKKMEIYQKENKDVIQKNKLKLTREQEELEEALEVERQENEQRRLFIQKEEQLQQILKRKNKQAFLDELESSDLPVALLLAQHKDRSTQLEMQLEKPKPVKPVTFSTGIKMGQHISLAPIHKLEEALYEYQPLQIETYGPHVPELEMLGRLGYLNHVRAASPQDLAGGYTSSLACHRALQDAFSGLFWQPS

STK39 (human) = STK39 (human) (UniProt Q9UEW8)
MYO3B (human) = MYO3B (human) (UniProt Q8WXR4)
PAK1 (human) = PAK1 (human) (UniProt Q13153)
Sequence of PAK1 (human) (Q13153 whole entry, looked up): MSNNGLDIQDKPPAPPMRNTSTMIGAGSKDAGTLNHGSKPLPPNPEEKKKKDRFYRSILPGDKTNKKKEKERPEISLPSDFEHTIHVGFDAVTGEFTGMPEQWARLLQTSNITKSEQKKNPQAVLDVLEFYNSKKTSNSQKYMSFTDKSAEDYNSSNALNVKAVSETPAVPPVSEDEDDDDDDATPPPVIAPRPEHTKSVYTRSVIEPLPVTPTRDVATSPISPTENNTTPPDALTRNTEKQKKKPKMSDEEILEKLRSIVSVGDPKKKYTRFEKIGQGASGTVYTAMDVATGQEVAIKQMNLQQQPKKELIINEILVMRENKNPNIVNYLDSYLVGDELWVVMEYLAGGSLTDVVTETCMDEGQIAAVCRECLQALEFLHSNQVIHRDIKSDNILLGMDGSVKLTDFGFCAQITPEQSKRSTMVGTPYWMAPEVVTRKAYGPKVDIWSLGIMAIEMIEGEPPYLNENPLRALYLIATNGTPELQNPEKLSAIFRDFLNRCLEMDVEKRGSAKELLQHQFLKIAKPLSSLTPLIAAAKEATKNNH

STK24 (human) = STK24 (human) (UniProt Q9Y6E0)
CSNK1E (human) = CSNK1E (human) (UniProt P49674)
PASK (human) = PASK (human) (UniProt Q96RG2)
LTK (human) = LTK (human) (UniProt P29376)
AXL (human) = AXL (human) (UniProt P30530)
PAK7 (human) = PAK7 (human) (UniProt Q9P286)
LCK (human) = LCK (human) (UniProt P06239)
Sequence of LCK (human) (P06239 whole entry, looked up): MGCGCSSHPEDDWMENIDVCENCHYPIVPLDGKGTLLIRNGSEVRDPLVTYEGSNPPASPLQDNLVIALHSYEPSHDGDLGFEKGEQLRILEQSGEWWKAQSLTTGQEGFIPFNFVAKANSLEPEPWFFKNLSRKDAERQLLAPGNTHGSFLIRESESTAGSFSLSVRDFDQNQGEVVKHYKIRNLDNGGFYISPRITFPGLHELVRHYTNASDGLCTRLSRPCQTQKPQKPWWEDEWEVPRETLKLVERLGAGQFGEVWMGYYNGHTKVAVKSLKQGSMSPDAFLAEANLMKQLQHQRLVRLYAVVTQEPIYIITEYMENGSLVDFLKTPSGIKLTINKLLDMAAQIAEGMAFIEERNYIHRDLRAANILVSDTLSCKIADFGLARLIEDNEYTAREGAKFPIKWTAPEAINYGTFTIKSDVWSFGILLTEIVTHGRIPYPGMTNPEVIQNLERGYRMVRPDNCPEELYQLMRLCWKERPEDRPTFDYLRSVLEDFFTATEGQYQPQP

MAPK8 (human) = MAPK8 (human) (UniProt P45983)
CLK4 (human) = CLK4 (human) (UniProt Q9HAZ1)
Sequence of CLK4 (human) (Q9HAZ1 whole entry, looked up): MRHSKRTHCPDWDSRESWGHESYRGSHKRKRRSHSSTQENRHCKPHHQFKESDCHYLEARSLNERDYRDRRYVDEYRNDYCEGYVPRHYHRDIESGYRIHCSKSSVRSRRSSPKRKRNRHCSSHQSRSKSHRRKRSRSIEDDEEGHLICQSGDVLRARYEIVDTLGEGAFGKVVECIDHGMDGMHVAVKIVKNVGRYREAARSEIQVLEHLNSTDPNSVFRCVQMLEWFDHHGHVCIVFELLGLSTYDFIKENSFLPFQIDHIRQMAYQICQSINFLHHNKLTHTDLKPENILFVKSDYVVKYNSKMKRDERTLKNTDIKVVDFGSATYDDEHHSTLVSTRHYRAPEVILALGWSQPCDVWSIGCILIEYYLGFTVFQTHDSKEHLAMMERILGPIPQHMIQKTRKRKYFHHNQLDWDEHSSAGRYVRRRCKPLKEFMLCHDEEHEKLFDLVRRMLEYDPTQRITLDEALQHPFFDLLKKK

MAPKAPK3 (human) = MAPKAPK3 (human) (UniProt Q16644)
Sequence of MAPKAPK3 (human) (Q16644 whole entry, looked up): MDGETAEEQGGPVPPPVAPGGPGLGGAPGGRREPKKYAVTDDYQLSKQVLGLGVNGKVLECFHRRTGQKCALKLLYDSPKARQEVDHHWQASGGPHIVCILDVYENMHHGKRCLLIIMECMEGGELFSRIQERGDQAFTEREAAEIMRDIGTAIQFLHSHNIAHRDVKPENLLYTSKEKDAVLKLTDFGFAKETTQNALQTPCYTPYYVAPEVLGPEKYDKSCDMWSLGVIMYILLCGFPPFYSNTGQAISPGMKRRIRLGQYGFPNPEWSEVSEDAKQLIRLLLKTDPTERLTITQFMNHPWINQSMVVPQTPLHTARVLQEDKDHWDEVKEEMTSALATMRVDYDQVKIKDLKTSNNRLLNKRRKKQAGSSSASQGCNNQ

TLK2 (human) = TLK2 (human) (UniProt Q86UE8)
PRKCD (human) = PRKCD (human) (UniProt Q05655)
MAP3K11 (human) = MAP3K11 (human) (UniProt Q16584)
TAOK2 (human) = TAOK2 (human) (UniProt Q9UL54)
FER (human) = FER (human) (UniProt P16591)
Sequence of FER (human) (P16591 whole entry, looked up): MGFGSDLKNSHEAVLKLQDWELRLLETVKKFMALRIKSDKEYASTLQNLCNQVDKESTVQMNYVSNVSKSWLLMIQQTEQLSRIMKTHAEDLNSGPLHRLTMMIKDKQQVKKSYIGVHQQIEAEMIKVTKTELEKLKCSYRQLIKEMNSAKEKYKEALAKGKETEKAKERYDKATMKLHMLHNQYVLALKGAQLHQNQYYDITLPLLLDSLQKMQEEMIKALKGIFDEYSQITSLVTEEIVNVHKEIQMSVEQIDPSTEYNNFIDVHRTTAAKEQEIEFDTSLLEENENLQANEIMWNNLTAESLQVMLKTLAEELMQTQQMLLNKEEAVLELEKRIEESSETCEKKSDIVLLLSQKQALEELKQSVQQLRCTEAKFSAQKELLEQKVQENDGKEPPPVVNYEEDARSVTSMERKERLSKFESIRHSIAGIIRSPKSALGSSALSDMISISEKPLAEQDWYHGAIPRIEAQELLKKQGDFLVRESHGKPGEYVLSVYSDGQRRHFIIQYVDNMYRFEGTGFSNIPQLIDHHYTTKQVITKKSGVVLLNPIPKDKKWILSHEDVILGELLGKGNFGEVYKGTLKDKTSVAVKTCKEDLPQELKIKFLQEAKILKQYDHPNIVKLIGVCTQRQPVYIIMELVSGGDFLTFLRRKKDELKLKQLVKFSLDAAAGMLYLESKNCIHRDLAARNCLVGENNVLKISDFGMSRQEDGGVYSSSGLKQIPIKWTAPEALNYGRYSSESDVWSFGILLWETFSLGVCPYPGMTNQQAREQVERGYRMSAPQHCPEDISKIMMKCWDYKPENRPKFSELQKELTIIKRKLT

PRKACG (human) = PRKACG (human) (UniProt P22612)
CDK4 CCND3 (human) = CDK4 CCND3 (human) (UniProt P30281+P11802)
STK16 (human) = STK16 (human) (UniProt O75716)
PRKX (human) = PRKX (human) (UniProt P51817)
SRC (human) = SRC (human) (UniProt P12931)
CDK1 CCNA2 (human) = CDK1 CCNA2 (human) (UniProt P06493+P20248)
BRAF (human) = BRAF (human) (UniProt P15056)

SMILES	residual activity (OXSR1 (human))	residual activity (ULK3 (human))	residual activity (STK38 (human))	residual activity (MAP4K2 (human))	residual activity (RPS6KB1 (human))	residual activity (IGF1R (human))	residual activity (MUSK (human))	residual activity (TSSK1B (human))	residual activity (PTK2B (human))	residual activity (EPHA6 (human))	residual activity (ULK1 (human))	residual activity (AKT2 (human))	residual activity (CDK7 CCNH MNAT1 (human))	residual activity (STK39 (human))	residual activity (MYO3B (human))	residual activity (PAK1 (human))	residual activity (STK24 (human))	residual activity (CSNK1E (human))	residual activity (PASK (human))	residual activity (LTK (human))	further results
Cn1nc2c3c(cccc31)C(=O)c1ccccc1-2	102%	94.9%	98.5%	75.4%	96.3%	95.9%	88.4%	98.4%	102%	87.6%	101%	98.9%	98.8%	101%	97.7%	98.5%	98.6%	34.3%	94.6%	86.7%	residual activity (MET (human)): 107%; residual activity (MAPK12 (human)): 93.8%; residual activity (PRKCB2 (human)): 97.8%; residual activity (AXL (human)): 104%; residual activity (PAK7 (human)): 102%; residual activity (LCK (human)): 99.2%; residual activity (MAPK8 (human)): 87.2%; residual activity (CLK4 (human)): 69.8%; residual activity (MAPKAPK3 (human)): 104%; residual activity (TLK2 (human)): 101%; residual activity (PRKCD (human)): 92.3%; residual activity (MAP3K11 (human)): 97.2%; residual activity (TAOK2 (human)): 104%; residual activity (FER (human)): 99.2%; residual activity (PRKACG (human)): 107%; residual activity (CDK4 CCND3 (human)): 92.4%; residual activity (STK16 (human)): 83.3%; residual activity (PRKX (human)): 101%; residual activity (SRC (human)): 90.7%; residual activity (CDK1 CCNA2 (human)): 88%
CN([C@@H](Cc1ccc(OS(=O)(=O)c2cccc3cnccc23)cc1)C(=O)N1CCN(c2ccccc2)CC1)S(=O)(=O)c1cccc2cnccc12	101%	98.6%	97.2%	89.5%	101%	105%	92.7%	95.4%	103%	94.9%	101%	106%	99.4%	93.5%	88.5%	95.7%	102%	103%	103%	102%	residual activity (MET (human)): 114%; residual activity (MAPK12 (human)): 92.2%; residual activity (AXL (human)): 103%; residual activity (PAK7 (human)): 103%; residual activity (LCK (human)): 97.5%; residual activity (MAPK8 (human)): 94.6%; residual activity (CLK4 (human)): 97.2%; residual activity (MAPKAPK3 (human)): 101%; residual activity (TLK2 (human)): 100%; residual activity (PRKCD (human)): 93%; residual activity (MAP3K11 (human)): 105%; residual activity (TAOK2 (human)): 98.3%; residual activity (FER (human)): 100%; residual activity (PRKACG (human)): 107%; residual activity (CDK4 CCND3 (human)): 97.8%; residual activity (STK16 (human)): 104%; residual activity (PRKX (human)): 109%; residual activity (SRC (human)): 91.3%
O=C1Cc2c([nH]c3ccc(Br)cc23)-c2ccccc2N1	107%	83.2%	98.6%	20.1%	103%	103%	87.6%	80.4%	102%	93.7%	93.8%	104%	95.1%	90.1%	97.4%	85%	84.8%	103%	98%	91.8%	residual activity (PRKCB2 (human)): 102%; residual activity (AXL (human)): 101%; residual activity (PAK7 (human)): 85.1%; residual activity (MAPK8 (human)): 87.5%; residual activity (CLK4 (human)): 91.1%; residual activity (MAPKAPK3 (human)): 100%; residual activity (TLK2 (human)): 99.4%; residual activity (PRKCD (human)): 92.7%; residual activity (MAP3K11 (human)): 49.4%; residual activity (TAOK2 (human)): 94%; residual activity (FER (human)): 89.7%; residual activity (BRAF (human)): 97.7%; residual activity (PRKACG (human)): 105%; residual activity (CDK4 CCND3 (human)): 89%; residual activity (STK16 (human)): 98.9%; residual activity (PRKX (human)): 100%; residual activity (SRC (human)): 71.4%; residual activity (CDK1 CCNA2 (human)): 88.5%
Oc1ccc(Nc2nc(-c3ccc(Cl)cc3)cs2)cc1	88.8%	94.4%	98.2%	103%	104%	102%	99.5%	119%	100%	101%	84.2%	96.4%	96.3%	94.2%	98.7%	99.4%	94.1%	103%	131%	104%	residual activity (MET (human)): 99.4%; residual activity (MAPK12 (human)): 106%; residual activity (PRKCB2 (human)): 94.7%; residual activity (AXL (human)): 98.5%; residual activity (PAK7 (human)): 105%; residual activity (LCK (human)): 99.8%; residual activity (MAPK8 (human)): 100%; residual activity (CLK4 (human)): 98.8%; residual activity (MAPKAPK3 (human)): 94.1%; residual activity (TLK2 (human)): 121%; residual activity (PRKCD (human)): 86.9%; residual activity (MAP3K11 (human)): 95.3%; residual activity (TAOK2 (human)): 101%; residual activity (FER (human)): 90.3%; residual activity (PRKACG (human)): 112%; residual activity (CDK4 CCND3 (human)): 108%; residual activity (STK16 (human)): 106%; residual activity (PRKX (human)): 99.6%; residual activity (SRC (human)): 95.1%; residual activity (CDK1 CCNA2 (human)): 91.2%
Nc1nccc(-c2c(-c3ccc(F)cc3)ncn2C2CCNCC2)n1	101%	95.5%	99.8%	102%	98.2%	104%	86.9%	106%	94.6%	78%	95.3%	94.8%	98.9%	93.5%	97.9%	97.4%	98.8%	2.39%	98.5%	97.3%	residual activity (MET (human)): 104%; residual activity (PRKCB2 (human)): 79.4%; residual activity (AXL (human)): 102%; residual activity (PAK7 (human)): 101%; residual activity (LCK (human)): 80.1%; residual activity (MAPK8 (human)): 94.8%; residual activity (CLK4 (human)): 96.9%; residual activity (MAPKAPK3 (human)): 99.4%; residual activity (TLK2 (human)): 95.1%; residual activity (PRKCD (human)): 99.8%; residual activity (MAP3K11 (human)): 96.3%; residual activity (TAOK2 (human)): 98%; residual activity (FER (human)): 98.3%; residual activity (BRAF (human)): 103%; residual activity (PRKACG (human)): 105%; residual activity (CDK4 CCND3 (human)): 104%; residual activity (STK16 (human)): 108%; residual activity (PRKX (human)): 96.8%; residual activity (SRC (human)): 94.2%; residual activity (CDK1 CCNA2 (human)): 92.7%
